# Measured values reported in ChEMBL document CHEMBL1127854, “Bromobenzofuran-based non-peptide antagonists of angiotensin II: GR138950, a potent antihypertensive agent with high oral bioavailability” (J Med Chem, 1994).
# Legend:
# Rattus norvegicus [1] = test: […] antihypertensive activity in renal hypertensive rat at 0.5 mg/kg after 24 hr of oral administration.; assay type: functional
# Angiotensin II receptor = biological target: T1, Angiotensin II receptor (Rattus norvegicus, UniProt P29089+P25095+P35351); test: Tested for in vitro binding affinity against angiotensin II receptor of rat liver
# T1 sequence (P29089 whole entry): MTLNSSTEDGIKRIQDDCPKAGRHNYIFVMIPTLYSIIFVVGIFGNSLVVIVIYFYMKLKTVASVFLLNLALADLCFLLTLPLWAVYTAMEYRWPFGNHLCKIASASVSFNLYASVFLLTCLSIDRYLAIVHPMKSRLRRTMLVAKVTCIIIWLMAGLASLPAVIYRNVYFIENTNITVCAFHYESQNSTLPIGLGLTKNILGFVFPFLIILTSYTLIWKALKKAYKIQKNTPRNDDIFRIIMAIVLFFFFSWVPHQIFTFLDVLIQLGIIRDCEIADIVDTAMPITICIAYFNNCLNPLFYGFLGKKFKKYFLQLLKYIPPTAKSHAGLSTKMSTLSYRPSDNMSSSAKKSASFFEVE
# T1 sequence (P25095 whole entry): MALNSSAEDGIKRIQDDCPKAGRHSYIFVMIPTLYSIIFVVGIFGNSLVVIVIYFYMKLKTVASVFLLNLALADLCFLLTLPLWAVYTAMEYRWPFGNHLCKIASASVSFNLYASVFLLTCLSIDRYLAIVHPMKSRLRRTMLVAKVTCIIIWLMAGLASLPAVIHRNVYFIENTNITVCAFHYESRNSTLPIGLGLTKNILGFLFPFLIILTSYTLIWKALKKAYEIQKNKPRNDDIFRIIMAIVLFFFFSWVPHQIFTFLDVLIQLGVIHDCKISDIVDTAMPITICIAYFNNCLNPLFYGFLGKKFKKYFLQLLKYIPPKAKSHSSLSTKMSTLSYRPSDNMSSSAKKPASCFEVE
# T1 sequence (P35351 whole entry): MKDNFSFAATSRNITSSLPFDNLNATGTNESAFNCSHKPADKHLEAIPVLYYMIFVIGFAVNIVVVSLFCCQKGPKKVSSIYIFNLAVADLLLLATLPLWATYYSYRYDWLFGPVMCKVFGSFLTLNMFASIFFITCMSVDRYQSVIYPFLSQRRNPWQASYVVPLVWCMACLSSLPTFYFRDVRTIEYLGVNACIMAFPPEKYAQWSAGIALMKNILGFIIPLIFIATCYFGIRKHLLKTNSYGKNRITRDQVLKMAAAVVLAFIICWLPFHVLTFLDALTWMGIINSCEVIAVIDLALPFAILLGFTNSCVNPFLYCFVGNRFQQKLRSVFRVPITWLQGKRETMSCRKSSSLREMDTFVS
# Rattus norvegicus [2] = test: […] antihypertensive activity in renal hypertensive rat at 0.5 mg/kg after 7 hr of oral administration.; assay type: functional
# Rattus norvegicus [3] = test: […] antihypertensive activity in renal hypertensive rat at 0.5 mg/kg after 5 hr of oral administration.; assay type: functional
# Rattus norvegicus [4] = test: In vivo antihypertensive activity in renal hypertensive rat at 1.0 mg/kg after 5 hr of oral administration.
# [5] = Bioavailability in dog (dose 3-10 mg/kg); assay type: ADME, organism-based, Canis lupus familiaris; conditions: in vivo
# [6] = The compound was tested for volume of distribution in dog at dose of 3-10 mgkg; assay type: ADME, organism-based, Canis lupus familiaris; conditions: in vivo
# [7] = Half-life in plasma of dog at dose of […]-[…] mgkg; assay type: ADME, organism-based, Canis lupus familiaris
# [8] = The compound was tested for plasma clearance in dog at dose of 3-10 mgkg; assay type: ADME, organism-based, Canis lupus familiaris
# Rattus norvegicus [9] = test: Tested for […] antihypertensive activity in renal hypertensive rat at 1 mg/kg after 5 hr of oral administration; assay type: functional
# Rattus norvegicus [10] = test: Tested for […] antihypertensive activity in renal hypertensive rat at 1 mg/kg after 7 hr of oral administration; assay type: functional
# Rattus norvegicus [11] = test: Tested for […] antihypertensive activity in renal hypertensive rat at 1 mg/kg after 24 hr of oral administration; assay type: functional
# [12] = Half-life in plasma of dog; assay type: ADME, organism-based, Canis lupus familiaris
# [13] = The compound was tested for plasma clearance in dog; assay type: ADME, organism-based, Canis lupus familiaris
# [14] = The compound was tested for volume of distribution in dog; assay type: ADME, organism-based, Canis lupus familiaris; conditions: in vivo
# [15] = The compound was tested for volume of distribution in rat at dose of 3-10 mgkg; assay type: ADME, organism-based; conditions: in vivo
# [16] = Half-life in plasma of rat at dose of […]-[…] mgkg; assay type: ADME, organism-based
# [17] = Bioavailability in rat (dose 3-10 mg/kg); assay type: ADME, organism-based; conditions: in vivo
# [18] = The compound was tested for plasma clearance in rat at dose of 3-10 mgkg; assay type: ADME, organism-based
# [19] = Bioavailability in rat; assay type: ADME, organism-based; conditions: in vivo
# [20] = Half-life in plasma of rat; assay type: ADME, organism-based
# [21] = The compound was tested for plasma clearance in rat; assay type: ADME, organism-based
# [22] = The compound was tested for volume of distribution in rat; assay type: ADME, organism-based; conditions: in vivo
Structure (SMILES),Activity (Rattus norvegicus [1]),Log Ki (Angiotensin II receptor),Activity (Rattus norvegicus [2]),Activity (Rattus norvegicus [3]),further results
CCNC(=O)c1c(Cl)nc(CC)n1Cc1ccc2oc(-c3ccccc3NS(=O)(=O)C(F)(F)F)c(Br)c2c1,-12,-8.7,-43,-37,–
CCc1nc(C2CC2)c(C(N)=O)n1Cc1ccc2oc(-c3ccccc3NS(=O)(=O)C(F)(F)F)c(C(F)(F)F)c2c1,-17,-9,-49,–,Activity (Rattus norvegicus [4]): -48
CCCc1nc(Cl)c(C(=O)NCC)n1Cc1ccc2oc(-c3ccccc3NS(=O)(=O)C(F)(F)F)c(Br)c2c1,-13,-9,-54,-40,–
CCc1nc(C2CC2)c(C(=O)NCC(C)C)n1Cc1ccc2oc(-c3ccccc3NS(=O)(=O)C(F)(F)F)c(Br)c2c1,-47,-9.9,-70,-63,–
CCc1nc(Cl)c(C(N)=O)n1Cc1ccc2oc(-c3ccccc3NS(=O)(=O)C(F)(F)F)c(Br)c2c1,-12,-8.5,-55,-57,–
CCNC(=O)c1c(C2CC2)nc(CC)n1Cc1ccc2oc(-c3ccccc3NS(=O)(=O)C(F)(F)F)c(Br)c2c1,-14,-9.2,-63,-53,–
CCCc1nc(C)c(C(=O)NC)n1Cc1ccc2oc(-c3ccccc3NS(=O)(=O)C(F)(F)F)c(Br)c2c1,-12,-9,-50,-30,–
CCc1nc(CC)n(Cc2ccc3oc(-c4ccccc4NS(=O)(=O)C(F)(F)F)c(Br)c3c2)c1C(N)=O,-17,-9.1,-38,-35,–
CCCCc1nc(Cl)c(C(=O)NC)n1Cc1ccc2oc(-c3ccccc3-c3nn[nH]n3)c(Br)c2c1,–,–,–,–,bioavailability [5]: 36%; Vd [6]: 0.3 L/kg; half-life [7]: 0.5 h; clearance [8]: 11 mL/min/kg
CCCCc1nc(Cl)c(C(=O)NC)n1Cc1ccc2oc(-c3ccccc3NS(=O)(=O)C(F)(F)F)c(Br)c2c1,–,-8.8,–,–,Activity (Rattus norvegicus [9]): -40; Activity (Rattus norvegicus [10]): -45; Activity (Rattus norvegicus [11]): 7
CCCc1nc(C)c(C(N)=O)n1Cc1ccc2oc(-c3ccccc3NS(=O)(=O)C(F)(F)F)c(Br)c2c1,-8,-9.1,-37,-38,–
CCOC(=O)c1c(C)nc(CC)n1Cc1ccc2oc(-c3ccccc3-c3nn[nH]n3)c(Br)c2c1,–,–,–,–,bioavailability [5]: 70%; Vd [6]: 2 L/kg; half-life [7]: 0.2 h; clearance [8]: ~100 mL/min/kg
CCc1c(-c2ccccc2NS(=O)(=O)C(F)(F)F)oc2ccc(Cn3c(CC)nc(C4CC4)c3C(N)=O)cc12,-2,-8.8,-42,-37,–
CCc1nc(C(C)C)c(C(N)=O)n1Cc1ccc2oc(-c3ccccc3NS(=O)(=O)C(F)(F)F)c(Br)c2c1,-13,-8.4,-22,-21,–
CCc1nc(C)c(C(=O)NC)n1Cc1ccc2oc(-c3ccccc3NS(=O)(=O)C(F)(F)F)c(Br)c2c1,-6,-8.5,-54,-43,–
CCc1nc(C)c(C(=O)N(C)C)n1Cc1ccc2oc(-c3ccccc3NS(=O)(=O)C(F)(F)F)c(Br)c2c1,1,-8.6,2,1,–
CCc1nc(C2CC2)c(C(N)=O)n1Cc1ccc2oc(-c3ccccc3NS(=O)(=O)C(F)(F)F)c(Br)c2c1,-38,-9.3,-76,-66,half-life [12]: 9.3 h; clearance [13]: 1.6 mL/min/kg; Vd [14]: 0.9 L/kg

Structure (SMILES),Activity (Rattus norvegicus [1]),Log Ki (Angiotensin II receptor),Activity (Rattus norvegicus [2]),Activity (Rattus norvegicus [3]),further results
CCc1nc(CC(C)C)c(C(N)=O)n1Cc1ccc2oc(-c3ccccc3NS(=O)(=O)C(F)(F)F)c(Br)c2c1,-8,-7.7,-19,-4,–
CCc1nc(C)c(C(=O)O)n1Cc1ccc2oc(-c3ccccc3-c3nn[nH]n3)c(Br)c2c1,–,–,–,–,bioavailability [5]: 8%; Vd [6]: 2 L/kg; half-life [7]: 4 h; clearance [8]: 6 mL/min/kg
CCCc1nc(Cl)c(C(N)=O)n1Cc1ccc2oc(-c3ccccc3NS(=O)(=O)C(F)(F)F)c(Br)c2c1,9,-8.7,-28,-19,–
CCc1nc(C2CC2)c(C(N)=O)n1Cc1ccc2oc(-c3ccccc3NS(=O)(=O)C(F)(F)F)cc2c1,7,-7,-16,-18,–
CCCCc1nc(Cl)c(CO)n1Cc1ccc2oc(-c3ccccc3-c3nn[nH]n3)c(Br)c2c1,–,–,–,–,Vd [15]: 1.3 L/kg; half-life [16]: 1 h; bioavailability [17]: 37%; clearance [18]: 18 mL/min/kg
CCCc1nc(Cl)c(C(=O)NC)n1Cc1ccc2oc(-c3ccccc3NS(=O)(=O)C(F)(F)F)c(Br)c2c1,-19,-8.9,-61,-67,–
CCNC(=O)c1c(C2CC2)nc(CC)n1Cc1ccc2oc(-c3ccccc3-c3nn[nH]n3)c(Br)c2c1,-1,-9.4,-9,-8,–
CCNC(=O)c1c(C2CC2)nc(CC)n1Cc1ccc2oc(-c3ccccc3C(=O)O)c(Br)c2c1,–,-8.6,–,–,Activity (Rattus norvegicus [9]): 6; Activity (Rattus norvegicus [10]): 0; Activity (Rattus norvegicus [11]): 4
CCc1nc(Cl)c(C(=O)NC)n1Cc1ccc2oc(-c3ccccc3NS(=O)(=O)C(F)(F)F)c(Br)c2c1,-4,-8.6,-31,-30,–
CCc1nc(C2CC2)c(C(N)=O)n1Cc1ccc2oc(-c3ccccc3NS(=O)(=O)C(F)(F)F)c(Cl)c2c1,-42,-8.9,-60,–,Activity (Rattus norvegicus [4]): -57
CCCc1nc(C)c(C(=O)NCC)n1Cc1ccc2oc(-c3ccccc3NS(=O)(=O)C(F)(F)F)c(Br)c2c1,-30,-9.5,-48,-33,bioavailability [19]: 90%; half-life [20]: 4.5 h; clearance [21]: 29 mL/min/kg; Vd [22]: 11 L/kg
CNC(=O)c1c(C)nc(C)n1Cc1ccc2oc(-c3ccccc3NS(=O)(=O)C(F)(F)F)c(Br)c2c1,-3,-7.5,0,6,–
CCNC(=O)c1c(C)nc(CC)n1Cc1ccc2oc(-c3ccccc3NS(=O)(=O)C(F)(F)F)c(Br)c2c1,4,-8.9,-33,-17,–
CCc1nc(C)c(C(N)=O)n1Cc1ccc2oc(-c3ccccc3NS(=O)(=O)C(F)(F)F)c(Br)c2c1,-3,-8.9,-61,-40,–
CCc1nc(C2CC2)c(C(=O)NC)n1Cc1ccc2oc(-c3ccccc3NS(=O)(=O)C(F)(F)F)c(Br)c2c1,-9,-9.4,-52,-60,–
CCCCc1nc(Cl)c(CO)n1Cc1ccc(-c2ccccc2-c2nnn[nH]2)cc1 [LOSARTAN],-36,–,-41,-30,–
CCCCc1nc(Cl)c(C(=O)O)n1Cc1ccc2oc(-c3ccccc3-c3nn[nH]n3)c(Br)c2c1 [ZOLASARTAN],–,–,–,–,bioavailability [5]: 9%; Vd [6]: 1.2 L/kg; half-life [7]: 2.5 h; clearance [8]: 6 mL/min/kg
